Entries after “also recorded” stand apart in the source; their conditions may differ.
Columns and labels:
inflammatory cytokines = settings: cited from earlier work
retina = settings: in vivo, po; cited from earlier work
[1] = target: Pi isoform of glutathione-S-transferase (GSTP1) (Homo sapiens, UniProt P09211); settings: in vitro conditions; cited from earlier work
[2] = test system: wet macular degeneration (subfoveal CNV); assay: Case report: zeaxanthin pre-loading before verteporfin-laser PDT (Example 1); assay type: in vivo, human
Description: Such a candidate became known to the Applicant, in mid to late 2003. Because of certain personal and business connections, they were contacted by a person, who had been told that (i) […] eyesight was deteriorating rapidly, due to macular degeneration, and (ii) they should take care of any business, financial, legal, and other matters as soon as possible, before […] eyesight became even worse. This person made their plight (and their severe depression, due to the very negative prognosis they had received from an expert) known to the Applicant. In response, the Applicant informed the patient that they (the Applicant) had made a number of charitable donations to support research at the Johns Hopkins School of Medicine, where some of the world's foremost experts in macular degeneration work. […] (the Applicant) offered to see whether they could obtain expedited treatment for the patient, by making some phone calls to people they knew who worked there. The patient accepted that offer, and was seen and treated not long thereafter, by a top expert at the Wilmer Eye Institute, a highly respected eye care and research institute affiliated with Johns Hopkins.
This patient had been taking zeaxanthin for a number of weeks, prior to being examined and treated at the Wilmer Eye Institute. Their dosage was believed to be 20 milligrams per day, from taking two 10 milligram capsules (purchased from ZeaVision LLC) per day, usually with meals. They also took various other vitamin supplements during the course of their treatment, and afterwards.
An adult at the time, was suffering from wet macular degeneration.
At about that time, the patient began taking zeaxanthin supplements. It is believed that their typical daily dosage was 20 milligrams, from two 10 milligram capsules per day, usually taken with meals. The patient is also believed to have taken various other nutritional supplements during the relevant span of time, although their full contents, dosages, and durations are not known.
According to notes created by the ophthalmologist at the Wilmer Institute, obtained by the Applicant with approval from the patient, the patient suffered from subfoveal CNV in their right eye. […] According to the patient, the ophthalmologist advised them that their course of treatment likely would require 5 or 6 verteporfin-laser treatments, over a span of up to about 2 years.
His left eye was similar in appearance but questionable in extent, and there was no proven disease progression. Therefore, the ophthalmologist recommended careful monitoring but no PDT at that time.
Despite that advice, the patient continued taking zeaxanthin.

[3] = even at very high dosages; cited from earlier work
wet macular degeneration = assay: ZeaVision customer survey: zeaxanthin supplements and PDT treatment (Example 2); assay type: in vivo, human
Description: In the summer of 2004, the assignee company (ZeaVision LLC) began searching for customers who were: (i) taking zeaxanthin supplements they had purchased from ZeaVision, and (ii) had received one or more PDT treatments, for wet macular degeneration. They did this by sending postcards to customers, asking them to contact ZeaVision if they had received PDT treatment. Those customers who responded were briefly interviewed by phone by the customer support staff, who asked questions and filled in a worksheet that had been prepared to help guide the interviews. Most of these patients with age-related eye problems are in their 70's or 80's. They could not always provide exact dates when talking from memory during a phone call, and no efforts were made to check their actual medical records, or to consult with the ophthalmologists who performed their PDT treatments. In addition, nearly all of these patients were taking one or more additional vitamin supplements, such as lutein, Coenzyme Q10, and/or the AREDS formulation (all of which are commonly recommended by friends, relatives, and physicians), and at least one patient (identified as patient one, below) also received a steroid injection as part of their PDT therapy. […] Responses from patients who had been taking zeaxanthin for at least a month prior to a PDT treatment include the following examples: […]

poultry = settings: compared against preparation of dietary 3R,3′R stereoisomer; test in Spain; cited from earlier work
[4] = test system: vascular endothelial growth factor (VEGF); settings: verteporfin-laser treatment; cited from earlier work
[5] = test system: inflammatory chorioretinal diseases; settings: in vivo; cited from earlier work
[6] = right eye, January 2004, six months after PDT
[7] = right eye, October 2003, three months after PDT, zeaxanthin 20 mg/day
[8] = Patient one, ZX from June 2004, first and only PDT about 2 months later, also steroid injection

Sequence of Pi isoform of glutathione-S-transferase (GSTP1) (P09211 whole entry, canonical isoform): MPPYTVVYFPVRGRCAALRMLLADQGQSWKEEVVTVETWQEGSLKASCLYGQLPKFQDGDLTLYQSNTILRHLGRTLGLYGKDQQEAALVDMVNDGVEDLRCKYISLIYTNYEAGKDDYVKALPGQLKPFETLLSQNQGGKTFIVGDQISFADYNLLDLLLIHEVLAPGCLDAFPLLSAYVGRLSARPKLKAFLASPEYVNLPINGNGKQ

CC1=C(/C=C/C(C)=C/C=C/C(C)=C/C=C/C=C(C)/C=C/C=C(C)/C=C/C2=C(C)C(=O)[C@@H](O)CC2(C)C)C(C)(C)C[C@H](O)C1=O [astaxanthin]
effect on inflammatory and similar responses (inflammatory cytokines): can help reduce inflammatory and similar responses

CC1=C(/C=C/C(C)=C/C=C/C(C)=C/C=C/C=C(C)/C=C/C=C(C)/C=C/C2=C(C)C(=O)CCC2(C)C)C(C)(C)CCC1=O [canthaxanthin]
retinal deposition (retina): abnormal retinal deposition

CC1=C[C@H](O)CC(C)(C)[C@H]1/C=C/C(C)=C/C=C/C(C)=C/C=C/C=C(C)/C=C/C=C(C)/C=C/C1=C(C)C[C@@H](O)CC1(C)C [lutein, reference compound]
binding affinity of macular enzymes [1]: will not bind to lutein with any significant affinity

CC1=C(/C=C/C(C)=C/C=C/C(C)=C/C=C/C=C(C)/C=C/C=C(C)/C=C/C2=C(C)C[C@@H](O)CC2(C)C)C(C)(C)C[C@H](O)C1 [zeaxanthin]
findings in the eye not previously treated with PDT ([2]; left eye, March 2004, patient taking zeaxanthin, no PDT so far): growth of choroidal neovascularization compared to January 2004
ophthalmologist's assessment of PDT results, as orally reported by the patient ([2]; left eye, three months after PDT of March 2004): results were good
biomicroscopic findings (subretinal hemorrhage) [2, 6]: clearing of the subretinal hemorrhage that was noted along the inferonasal aspect of the treated area
fluorescein angiography [2, 6]: still showed some increased staining in the area where the hemorrhage had cleared
leakage from CNV ([2]; right eye, March 2004): no new leakage from CNV to suggest the need for any treatment
biomicroscopic findings (subretinal hemorrhage and fluid) [2, 7]: clearing of much of the subretinal hemorrhage along the nasal aspect of the posterior pole with no new subretinal fluid
fluorescein angiography [2, 7]: no fluorescein leakage to suggest the need for any additional treatment at this time except at the inferonasal aspect of the treated area
ophthalmologist's assessment of the PDT results ([2]; right eye, three months after first PDT, zeaxanthin 20 mg/day): much better than expected; also recorded: far better than expected
binding affinity of macular enzymes [1]: relatively high affinity
pathological changes in animal tests [3]: did not cause any pathological changes, of any sort
need for further PDT sessions (doctor's statement) (wet macular degeneration; Patient four, ZX begun before second PDT session, first session without ZX did not stabilize): appeared to not need any more PDT sessions
need for further PDT treatments (doctor's statement) (wet macular degeneration; [8]): may not need to have any more treatments
results of PDT treatment (wet macular degeneration; [8]): results were good
ophthalmologist's assessment of eyes at followup (wet macular degeneration; Patient three, October 2004): their eyes had stabilized
doctor's assessment of eyes at followup (wet macular degeneration; Patient three, ZX for some months before second PDT in May 2004, late June 2004): their eyes had gotten better, and appeared to be stable
vision in PDT-treated left eye (wet macular degeneration; Patient two, 10 mg/day ZX from May 2004, four PDT sessions April-October 2004, October 2004): 20/30
patient's description of their results (wet macular degeneration; Patient two, 10 mg/day ZX, October 2004): super-good
ophthalmologist's assessment of sight (wet macular degeneration; Patient two, 10 mg/day ZX, PDT on left eye): sight restored and improved
adverse side effects (wet macular degeneration; all patients surveyed): did not cause any adverse side effects of any sort
interference with efficacy of PDT treatment (wet macular degeneration; all patients surveyed): did not interfere with the efficacy of PDT treatment
overall benefit (wet macular degeneration; in at least some patients): provided at least some benefits
condition of PDT-treated eye (doctor's statement) (wet macular degeneration; parent of respondent OD, PDT on right eye after three months of ZX): appeared to be stable
condition of fellow eye with dry macular degeneration (respondents' statements) (wet macular degeneration; several respondents with PDT in one eye only): remain stable, or in some cases improve

meso-zeaxanthin
performance as colour additive for poultry (poultry): did not perform satisfactorily

verteporfin
release of hormones that increase blood vessel growth (VEGF) [4]: stimulates, rather than suppresses
performance relative to verteporfin treatment of wet macular degeneration [5]: tended to perform better, and more effectively

— patent US7941211B2, “Preloading with macular pigment to improve photodynamic treatment of retinal vascular disorders” (ZeaVision, LLC., priority 2003, dated 2011)
